Laboratory results as given in patent US6344473B1, “Imidazoles useful as nitric oxide synthase inhibitors” (G.D. Searle & Co., priority 2000, dated 2002).
Counter-ions that a name gives are not always drawn.

What was measured:
[1] = biological target: hncNOS (Homo sapiens, UniProt P29475); assay: Citrulline assay for nitric oxide synthase, human in vitro enzyme data, hncNOS; format: biochemical; settings: human neuronal constitutive NOS
[2] = biological target: hecNOS (Homo sapiens, UniProt P29474); assay: Citrulline assay for nitric oxide synthase, human in vitro enzyme data, hecNOS; format: biochemical; settings: human endothelial constitutive NOS
[3] = biological target: hiNOS (Homo sapiens, UniProt P35228); assay: Citrulline assay for nitric oxide synthase, human in vitro enzyme data, hiNOS; format: biochemical; settings: human inducible NOS
[4] = test system: plasma nitrites induced by endotoxin (LPS); assay: Low Dose LPS in vivo low-endotoxin assay (plasma nitrites); settings: mouse

| SMILES | IC50 [1] [µM] | IC50 [2] [µM] | IC50 [3] [µM] | Low Dose LPS in vivo Effective Dose (p.o.), inhibition ([4]; 3 mg/kg/day p.o.) [% inh.] | Low Dose LPS in vivo Effective Dose (p.o.), inhibition ([4]; 10 mg/kg/day p.o.) [% inh.] |
| --- | --- | --- | --- | --- | --- |
| Cc1noc(=O)n1CCCC[C@H](NC(=O)OC(C)(C)C)C(=O)O [Example 1, αS-[[(1,1-dimethylethoxy)carbonyl]amino]-4,5-dihydro-3-methyl-5-oxo-1,2,4-oxadiazole-4-hexanoic acid] | > 1000 | > 1000 | > 1000 | – | – |
| CCOC(=O)[C@@H](N)CCCCn1c(C)noc1=O [Example 3, ethyl αS-amino-4,5-dihydro-3-methyl-5-oxo-1,2,4-oxadiazole-4-hexanoate, monohydrochloride] | 200 | 1430 | 124 | – | – |
| Cc1noc(=O)n1CCCCC(N)C(=O)O (centres unmarked) [Example 2, αS-amino-4,5-dihydro-3-methyl-5-oxo-1,2,4-oxadiazole-4-hexanoic acid, monohydrochloride] | – | – | – | 39 | 42 |
